# Source: publication PMC7827085 (Pharmaceutics, 2021)
# Like-named read-outs stand apart in the source and are kept apart here.
# Columns and labels:
# ABCC1/MRP1 [1] = target: T1, ABCC1/MRP1 (Homo sapiens, UniProt P33527)
# [2] = in patients; lopinavir may reach, ritonavir may peak; ref FDA label 021226s018lbl / EMA Kaletra EPAR scientific discussion; cited from earlier work
# ABCG2/BCRP [3] = target: T2, ABCG2/BCRP (Homo sapiens, UniProt Q9UNQ0); test: in vitro; settings: human
# T2 sequence (Q9UNQ0 1-655): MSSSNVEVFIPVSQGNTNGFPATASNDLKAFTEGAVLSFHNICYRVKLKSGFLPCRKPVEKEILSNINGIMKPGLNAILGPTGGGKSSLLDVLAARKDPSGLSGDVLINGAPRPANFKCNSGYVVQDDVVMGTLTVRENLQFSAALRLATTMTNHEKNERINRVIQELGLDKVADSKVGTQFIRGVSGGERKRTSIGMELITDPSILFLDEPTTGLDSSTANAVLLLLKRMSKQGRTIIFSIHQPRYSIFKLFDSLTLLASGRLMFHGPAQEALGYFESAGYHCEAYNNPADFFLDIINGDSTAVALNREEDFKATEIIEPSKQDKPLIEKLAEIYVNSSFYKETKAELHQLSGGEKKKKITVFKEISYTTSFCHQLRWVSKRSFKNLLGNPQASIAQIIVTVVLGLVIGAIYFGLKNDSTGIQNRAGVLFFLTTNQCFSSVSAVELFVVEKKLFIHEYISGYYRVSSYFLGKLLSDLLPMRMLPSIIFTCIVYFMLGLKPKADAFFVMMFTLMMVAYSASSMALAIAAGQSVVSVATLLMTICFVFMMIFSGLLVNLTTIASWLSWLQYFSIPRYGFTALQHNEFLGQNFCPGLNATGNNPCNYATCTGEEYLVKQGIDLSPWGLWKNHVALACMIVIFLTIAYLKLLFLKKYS
# Experimental: These were employed at 37 °C for 10 min (ABCG2), 1 min (ABCB1), or 3 min (ABCC1), with or without 4 mM Mg-ATP, in a 50 μL final volume. The known reference inhibitors of the transporters (1 µM Ko143 for ABCG2, 1 µM Valspodar for ABCB1, and 200 µM Benzbromarone for ABCC1) served as controls. Each test compound was dissolved in DMSO and a 1 µL volume was added to the samples. After incubation, the samples were filtered and washed, and the substrates in the vesicles were dissolved in 10% SDS and transferred onto another plate. After the addition of a stabilizer, the fluorescence was measured in plate readers (Victor X3 and Enspire Perkin-Elmer, Waltham, MA, USA), while the activity of the radiolabeled substrate was measured by liquid scintillation counting (Perkin Elmer MicroBeta2 liquid scintillation counter, Perkin Elmer, Waltham, MA, USA). ABC transporter-related vesicular transport was calculated by subtracting uptake measured in the presence of Mg-AMP from the values measured in the presence of Mg-ATP.
# The effects of the test compounds on ABCG2 activity were also measured in a vesicular transport assay by using inverted membrane vesicles prepared from HEK-293 cells expressing high levels of the ABCG2 transporter.
# ABCC1/MRP1 [4] = target: T1, ABCC1/MRP1; test: in vitro; settings: HL60/ABCC1 cells
# Experimental: (§1) For the ABC transporter assays, we used both cell-based and membrane-based functional assays. […] The respective transport activities were assayed by measuring the cellular fluorescence of the respective transported substrates Phengreen (ABCG2) and Calcein (ABCB1 and ABCC1).
# (§2) The cells were kept on ice until the flow cytometry measurements. All experiments were performed in triplicate and in at least three biological parallels.
# (§3) The cells were kept on ice until the flow cytometry measurements. All experiments were performed in triplicate and in at least three biological parallels. […] The PhenGreen (PG) or Calcein signal was detected in the BL1 channel (emission filter: 530/30 nm). Analysis of the data was carried out by the Attune Nxt Cytometer Software v3.1.2 (Thermo Fischer Scientific, Waltham, MA, USA). The inhibition of transporter activity was calculated by comparing the fluorescence in the presence of the test compound to that in the presence of a specific inhibitor providing maximum inhibition. […] Half-maximum inhibition (IC50) values were calculated by using the Origin2019 software (9.6.5.169, OriginLab Corporation, Northampton, MA, USA). […] In these experiments, we measured Hoechst dye extrusion in HeLa cells stably expressing eGFP and the ABCG2 variants driven by the same promoter—the transgenic cells generated by the Sleeping Beauty transposon system. […] For details, see Zámbó et al.). […] The maximum inhibition was defined for each variant as the fluorescence difference of the samples incubated with and without Ko143, respectively. […] Data analysis was performed using the Attune Nxt Cytometer Software v3.1.2. Two samples per condition and three biological replicates were examined in each experiment.
# Therefore, we applied this assay to characterize the test drug interactions in intact HL60 cells expressing high levels of the ABCC1 protein.
# ABCG2/BCRP [5] = target: T2, ABCG2/BCRP; test: in vitro; settings: human; remark: listed apart in the source
# Experimental: as §1, §3
# Here, we used both PhenGreen-SK diacetate and Hst dye for these measurements. The PhenGreen (PG) assay is a recently patented method applied for ensuring an efficient ABCG2 transport measurement, as the non-fluorescent PhenGreen diacetate (PG-DA) is actively extruded by ABCG2 and the cellular fluorescence is correlated with ABCG2 transport activity. Therefore, we applied this assay to characterize the test drug interactions in intact PLB-985 cells expressing high levels of the ABCG2 protein. […] ABCG2 inhibition by the test compounds was estimated by their relative (%) inhibition compared to full inhibition by Ko143.
# ABCB1/MDR1/Pgp [6] = target: T3, ABCB1/MDR1/Pgp (Homo sapiens, UniProt P08183); test: in vitro; settings: human
# T3 sequence (P08183 whole entry): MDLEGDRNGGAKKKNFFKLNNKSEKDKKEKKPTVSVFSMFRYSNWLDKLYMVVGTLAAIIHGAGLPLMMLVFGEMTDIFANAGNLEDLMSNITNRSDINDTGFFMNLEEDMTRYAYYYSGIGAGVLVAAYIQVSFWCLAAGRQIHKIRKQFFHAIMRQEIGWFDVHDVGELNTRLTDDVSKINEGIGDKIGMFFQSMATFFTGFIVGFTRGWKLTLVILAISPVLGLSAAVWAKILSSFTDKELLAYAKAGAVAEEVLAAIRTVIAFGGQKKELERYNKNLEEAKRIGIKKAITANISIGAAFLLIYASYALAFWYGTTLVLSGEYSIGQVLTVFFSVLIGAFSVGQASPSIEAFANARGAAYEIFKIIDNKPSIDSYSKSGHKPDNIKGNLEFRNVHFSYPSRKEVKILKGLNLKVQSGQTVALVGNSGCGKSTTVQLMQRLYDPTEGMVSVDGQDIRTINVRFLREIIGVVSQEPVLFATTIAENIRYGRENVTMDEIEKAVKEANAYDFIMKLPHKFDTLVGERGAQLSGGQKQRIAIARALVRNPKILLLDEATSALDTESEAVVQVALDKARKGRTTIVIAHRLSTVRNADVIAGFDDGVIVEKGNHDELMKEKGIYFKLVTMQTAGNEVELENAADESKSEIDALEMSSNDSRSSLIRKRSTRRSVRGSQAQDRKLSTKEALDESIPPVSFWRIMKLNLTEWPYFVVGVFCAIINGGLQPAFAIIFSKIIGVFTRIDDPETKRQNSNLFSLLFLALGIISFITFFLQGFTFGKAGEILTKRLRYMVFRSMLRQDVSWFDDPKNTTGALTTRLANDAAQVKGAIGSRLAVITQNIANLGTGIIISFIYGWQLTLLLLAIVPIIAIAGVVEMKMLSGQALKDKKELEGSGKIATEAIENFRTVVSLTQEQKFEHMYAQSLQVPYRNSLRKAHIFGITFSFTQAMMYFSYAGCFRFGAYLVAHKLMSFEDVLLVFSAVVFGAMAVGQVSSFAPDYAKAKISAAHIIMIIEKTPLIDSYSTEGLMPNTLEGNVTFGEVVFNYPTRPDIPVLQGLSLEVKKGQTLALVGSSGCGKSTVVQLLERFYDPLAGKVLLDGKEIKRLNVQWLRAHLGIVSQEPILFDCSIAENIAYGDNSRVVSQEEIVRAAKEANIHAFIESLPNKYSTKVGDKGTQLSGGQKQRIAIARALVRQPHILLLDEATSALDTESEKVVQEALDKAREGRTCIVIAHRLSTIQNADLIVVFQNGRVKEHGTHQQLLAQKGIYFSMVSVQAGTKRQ
# Experimental: as §1, §2, §3
# ABCB1 is a high-affinity active efflux transporter of the viability dye Calcein-AM (CaAM). […] Here, we applied this widely used cellular assay (see https://www.solvobiotech.com/services/categories/dye-efflux-assays) to characterize drug interactions of the applied compounds in intact PLB-985 cells, expressing high levels of the ABCB1 protein.
# ABCB1/MDR1/Pgp [7] = target: T3, ABCB1/MDR1/Pgp; test: in vitro; settings: Estimated Transporter Inhibition IC50, ABCB1 vesicular assay, ATP-dependent NMQ uptake, HEK-293/ABCB1 inverted membrane vesicles, '-' = no inhibition
# T1 sequence (P33527 whole entry): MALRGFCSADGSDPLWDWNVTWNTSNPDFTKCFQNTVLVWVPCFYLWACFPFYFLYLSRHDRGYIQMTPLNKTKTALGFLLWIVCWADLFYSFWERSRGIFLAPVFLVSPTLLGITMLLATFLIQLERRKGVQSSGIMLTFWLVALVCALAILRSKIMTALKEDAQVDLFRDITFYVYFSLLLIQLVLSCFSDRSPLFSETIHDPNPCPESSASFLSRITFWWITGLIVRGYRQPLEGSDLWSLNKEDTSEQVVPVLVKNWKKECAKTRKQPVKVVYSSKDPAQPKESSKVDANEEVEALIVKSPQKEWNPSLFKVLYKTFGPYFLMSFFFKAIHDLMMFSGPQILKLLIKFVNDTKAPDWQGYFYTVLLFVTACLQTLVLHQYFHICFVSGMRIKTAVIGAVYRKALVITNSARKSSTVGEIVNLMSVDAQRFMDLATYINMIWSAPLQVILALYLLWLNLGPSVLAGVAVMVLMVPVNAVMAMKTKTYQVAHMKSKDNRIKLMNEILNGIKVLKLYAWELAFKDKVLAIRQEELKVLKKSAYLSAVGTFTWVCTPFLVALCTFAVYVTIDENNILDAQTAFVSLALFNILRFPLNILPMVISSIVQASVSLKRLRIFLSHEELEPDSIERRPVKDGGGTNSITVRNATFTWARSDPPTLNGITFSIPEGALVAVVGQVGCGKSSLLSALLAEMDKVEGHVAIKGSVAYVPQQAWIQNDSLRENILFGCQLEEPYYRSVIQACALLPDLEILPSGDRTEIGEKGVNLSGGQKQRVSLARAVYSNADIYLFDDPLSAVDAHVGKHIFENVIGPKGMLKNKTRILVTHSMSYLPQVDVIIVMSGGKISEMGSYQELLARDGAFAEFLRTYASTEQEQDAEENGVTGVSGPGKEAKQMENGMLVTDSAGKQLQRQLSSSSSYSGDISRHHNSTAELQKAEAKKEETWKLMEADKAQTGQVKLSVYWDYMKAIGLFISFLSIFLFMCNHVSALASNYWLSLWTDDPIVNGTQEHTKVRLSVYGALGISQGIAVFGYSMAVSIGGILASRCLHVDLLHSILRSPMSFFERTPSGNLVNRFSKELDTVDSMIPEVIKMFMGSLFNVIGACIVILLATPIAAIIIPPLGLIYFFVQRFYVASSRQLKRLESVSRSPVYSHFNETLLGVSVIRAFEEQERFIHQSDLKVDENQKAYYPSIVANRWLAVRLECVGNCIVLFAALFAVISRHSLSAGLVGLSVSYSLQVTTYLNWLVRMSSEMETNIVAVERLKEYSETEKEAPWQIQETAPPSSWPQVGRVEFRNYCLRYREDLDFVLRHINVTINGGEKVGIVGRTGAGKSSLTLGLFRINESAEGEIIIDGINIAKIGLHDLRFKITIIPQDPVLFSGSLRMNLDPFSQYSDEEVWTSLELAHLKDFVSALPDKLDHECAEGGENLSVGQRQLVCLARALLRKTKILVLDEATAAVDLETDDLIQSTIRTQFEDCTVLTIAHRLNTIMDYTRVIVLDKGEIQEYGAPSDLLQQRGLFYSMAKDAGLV
SMILES,Effect on ABCC1 vesicular ETGB transport (in words) (ABCC1/MRP1 [1]; Sf9/ABCC1 membrane vesicles),Plasma concentration in patients [2],Effect on ABCC1 vesicular ETGB transport (in words) (ABCC1/MRP1 [1]),IC50 at 10 min (ABCG2/BCRP [3]),Effect on ABCC1-dependent CaAM extrusion (in words) (ABCC1/MRP1 [4]),IC50 at 40 min (ABCG2/BCRP [5]),IC50 at 40 min (ABCB1/MDR1/Pgp [6]),IC50 (ABCB1/MDR1/Pgp [7])
CC(C)c1nc(CN(C)C(=O)N[C@H](C(=O)N[C@@H](Cc2ccccc2)C[C@H](O)[C@H](Cc2ccccc2)NC(=O)OCc2cncs2)C(C)C)cs1 [ritonavir],practically no effect,about 1 μM,–,–,–,–,–,–
CCN(CC)CCCC(C)Nc1ccnc2cc(Cl)ccc12 (centres unmarked) [chloroquine],–,–,practically no effect,> 50 µM,practically no effect,> 50 µM,> 50 µM,> 50 µM
